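Values below derive from 48-hour exposures of cells grown in 96-well plates, with endpoints linearly interpolated between the two concentrations bracketing the appropriate inhibition level. At the GI50, growth is halved.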 The source made the active and inactive calls. No stated cut-off is given here; in the data, active = GI50 up to about 1.1 µM and inactive = higher.
Tests used:
Assay in all cases: NCI-60 cell line screen, 48 h
786-0 = system: 786-0
A498 = system: A498
BT-549 = system: BT-549
HCT-116 = system: HCT-116
HCT-15 = system: HCT-15
HOP-62 = system: HOP-62
HOP-92 = system: HOP-92
IGROV-1 = system: IGROV-1
MCF7 = system: MCF7
MDA-MB-231 = system: MDA-MB-231
MDA-N = system: MDA-N
NCI-H460 = system: NCI-H460
NCI-H522 = system: NCI-H522
RPMI-8226 = system: RPMI-8226
SF-295 = system: SF-295
SF-539 = system: SF-539
SN12C = system: SN12C
SW-620 = system: SW-620
TK-10 = system: TK-10
UACC-257 = system: UACC-257

Structure (SMILES) | GI50 (786-0) | GI50 (A498) | GI50 (BT-549) | GI50 (HCT-116) | GI50 (HCT-15) | GI50 (HOP-62) | GI50 (HOP-92) | GI50 (IGROV-1) | GI50 (MCF7) | GI50 (MDA-MB-231) | GI50 (MDA-N) | GI50 (NCI-H460) | GI50 (NCI-H522) | GI50 (RPMI-8226) | GI50 (SF-295) | GI50 (SF-539) | GI50 (SN12C) | GI50 (SW-620) | GI50 (TK-10) | GI50 (UACC-257)
Cn1c2c3c(F)c(F)ccc3nc-2cc2ccccc21 | 0.519 µM (active) | 0.443 µM (active) | 3 µM (inactive) | 0.125 µM (active) | 1.49 µM | 1.35 µM (inactive) | 4.76 µM (inactive) | 3.42 µM (inactive) | 0.431 µM (active) | 3.3 µM (inactive) | 3.64 µM (inactive) | 1.04 µM (active) | 3.03 µM (inactive) | 0.711 µM (active) | 1.12 µM (active) | 2.06 µM (inactive) | 0.861 µM (active) | 1.49 µM (inactive) | 0.828 µM (active) | 3.83 µM (inactive)
COc1ccc([C@H]2C=C(c3cc(F)c(Cl)cc3Cl)N=c3s/c(=C\c4ccc(-c5ccc(Cl)cc5Cl)o4)c(=O)n32)cc1 | 42.4 µM (inactive) | 2.48 µM (inactive) | 47.2 µM (inactive) | 35.1 µM (inactive) | 33.8 µM | 18.8 µM (inactive) | 31.6 µM (inactive) | 30.3 µM (inactive) | 26.9 µM (inactive) | 25.5 µM (inactive) | 28.1 µM (inactive) | 48.4 µM (inactive) | 52.2 µM (inactive) | 32.5 µM (inactive) | 43.2 µM (inactive) | 34.6 µM (inactive) | 47.8 µM (inactive) | 51.1 µM (inactive) | 12.1 µM (inactive) | 30 µM (inactive)
CS(=O)(=O)OC1CCN(C2(c3cccc(O)c3)CCCCC2)CC1 | 27.4 µM (inactive) | > 100 µM (inactive) | 46.2 µM (inactive) | 31.8 µM (inactive) | 79.1 µM | 36.1 µM (inactive) | 51.3 µM (inactive) | 28.7 µM (inactive) | 31.8 µM (inactive) | 73.5 µM (inactive) | 30.5 µM (inactive) | 48.5 µM (inactive) | > 100 µM (inactive) | 20.7 µM (inactive) | 36 µM (inactive) | 27.4 µM (inactive) | 32.9 µM (inactive) | 29.9 µM (inactive) | > 100 µM (inactive) | 38.4 µM (inactive)
CC1=CCC[C@@](C)(O)[C@@H]2C[C@H]3C(CSc4ccccc4)C(=O)O[C@H]3[C@@H](O2)[C@H](C)CCC1 (stereo not given in full) | 20.3 µM (inactive) | 18 µM (inactive) | 22.7 µM (inactive) | 21.4 µM (inactive) | 19 µM | 16.6 µM (inactive) | 26.9 µM (inactive) | 14.5 µM (inactive) | 13.8 µM (inactive) | 28.1 µM (inactive) | 24.5 µM (inactive) | 6.1 µM (inactive) | 10.7 µM (inactive) | 7.43 µM (inactive) | 12 µM (inactive) | 16.4 µM (inactive) | 38.2 µM (inactive) | 27 µM (inactive) | 17.3 µM (inactive) | 18.6 µM (inactive)
C#C[C@]1(O)CC[C@H]2[C@@H]3CCC4=C/C(=N\OCCN5CCCC5)CC[C@]4(C)[C@H]3CC[C@@]21C | 7.11 µM (inactive) | 18.7 µM (inactive) | 16.3 µM (inactive) | 8.36 µM (inactive) | 13.2 µM | 10.9 µM (inactive) | 29.1 µM (inactive) | 4.79 µM (inactive) | 4.72 µM (inactive) | 19.2 µM (inactive) | 3.25 µM (inactive) | 17.7 µM (inactive) | 3.57 µM (inactive) | 3.34 µM (inactive) | 3.72 µM (inactive) | 7.46 µM (inactive) | 16.7 µM (inactive) | 13.5 µM (inactive) | 17.1 µM (inactive) | 8.13 µM (inactive)
COc1cc2c(c(O)c1C)C(=O)C(Cl)=CC2=O | 11.6 µM (inactive) | 19 µM (inactive) | 8.3 µM (inactive) | 8.28 µM (inactive) | 11.5 µM | 43.2 µM (inactive) | 4.71 µM (inactive) | 20.4 µM (inactive) | 6.85 µM (inactive) | 12 µM (inactive) | 4.07 µM (inactive) | 24.9 µM (inactive) | 2.36 µM (inactive) | 6.35 µM (inactive) | 18.7 µM (inactive) | 18.1 µM (inactive) | 12.4 µM (inactive) | 3.06 µM (inactive) | 7.41 µM (inactive) | 9.95 µM (inactive)
CCC1(O)C=CC(=O)C=C1 | 18.4 µM (inactive) | 24.5 µM (inactive) | 43.5 µM (inactive) | 36.1 µM (inactive) | 17.9 µM | 27.7 µM (inactive) | 31.8 µM (inactive) | 17.2 µM (inactive) | 24 µM (inactive) | 17.2 µM (inactive) | 28.8 µM (inactive) | 23.4 µM (inactive) | 10.3 µM (inactive) | 32.4 µM (inactive) | 33.9 µM (inactive) | 0.0422 µM (active) | 32.9 µM (inactive) | 36.7 µM (inactive) | 21.1 µM (inactive) | 18.8 µM (inactive)

Reference: ChEMBL document CHEMBL1201862, “PubChem BioAssay data set” (2004)
